≈ marks a conversion by molar mass, not a printed value. Like-named read-outs stand apart in the source and are kept apart here. Non-standard residues stand in square brackets, D forms with d. Residues, ends and D or L forms follow the SMILES beside them. Orn = NCCC[C@H](N)C(=O)O; Dab = NCC[C@H](N)C(=O)O
Columns and labels:
P. aeruginosa PAO1 GFP [1] = experiment: MBEC, biofilm eradication, GFP fluorescence method; assay type: cell-based, Pseudomonas aeruginosa
Procedure: (§1) Figure 1 The MIC (A), MBIC (B) and MBEC (C) values for the tritrpticin analog peptides were assessed against Pa PAO1 GFP. The MIC values were determined by measuring the absorbance of bacterial cells at 600 nm. The MBIC and MBEC values were determined by recording the fluorescence at 480 nm and 530 nm from the biofilms of GFP-expressing PAO1. Three biological replicates were run for each test sample, and the mean was calculated for the recorded absorption or fluorescence values. In the graphs, the error bars represent the standard deviation (±SD).
(§2) Figure 2 The MIC (A), MBIC (B) and MBEC (C) values for the tritrpticin-Lys derivative peptides were assessed against Pa PAO1 GFP. The MIC values were determined by measuring the absorbance of bacterial cells at 600 nm. The MBIC and MBEC values were determined by recording the fluorescence at 480 nm and 530 nm from the biofilms of GFP-expressing PAO1. Three replicates were run for each sample, the values were averaged and the error bars represent the standard deviation (±SD).
(§3) The methods to determine the MIC, MBIC and MBEC have been described in detail in our previous publication. The green fluorescent protein (GFP)-producing P. aeruginosa and S. aureus strains that were used in this work were also described in the earlier publication. Fluorescence detection was used as the main method to estimate the number of cells entrapped in the biofilm matrix. The methodology used for evaluation of the antibiofilm properties against an original Pseudomonas PA01 strain by crystal violet dye staining and the use of the Calgary biofilm device has been described elsewhere. The regular PA01 strain was provided by Dr. J. Harrison, Calgary. All measurements were carried out on an Eppendorf AF2200 plate reader. Every 96-well plate included controls for bacterial cell growth without peptide treatment and media alone. All measurements were carried out in triplicate, and the values in the figures represent the average and the error bars are standard deviation.

P. aeruginosa PAO1 [2] = assay type: cell-based
Procedure: (§4) We note the close agreement with the MBIC and MBEC values determined by the fluorescence and CV methods, similar to what we found in our previous work for an S. aureus MRSA strain [23]. We also re-evaluated the MBEC values that are measured using the Calgary biofilm device (CBD), where biofilms form on pegs, rather than at the bottom of the 96-well plates. […] In particular, we find that the single Pro9Ala Tritrp-P9A-substituted version has better MIC, MBIC and MBEC activities than the parent peptide as well as the Tritrp-P59A analog with both prolines substituted to Ala.
(§5) Figure 4 The MIC (A), MBIC (B) and MBRC (C) values for the peptides were assessed against P. aeruginosa PAO1 in the presence of 1× BM2. The inhibition of planktonic cells, the inhibition of biofilm cells and the reduction in biofilm cells were determined for the peptides by recording of the planktonic cells at 600 nm and quantification of biofilms formed by Pa PAO1 using crystal violet at 595 nm, respectively. Three biological replicates were run for each test sample, and the mean was calculated for the recorded absorption values. Data points with error bars indicate the standard deviation (±SD).
(§6) Figure 6 The MIC (A), MBIC (B) and MBEC (C) values for the tritrpticin-Lys derivatives against P. aeruginosa PAO1 were assessed by the crystal violet (CV) assay for the measurement of inhibition of biofilm formation and eradication of biofilm cells, respectively. The biofilm cells were rinsed, stained with 0.1% crystal violet for 15 min and then rinsed again. The CV was released from biofilm cells by the addition of 95% ethanol and quantified by reading on a spectrometer at 595 nm. Three replicates were run for each sample, the values were averaged and the error bars represent the standard deviation (±SD).
as §3

P. aeruginosa PAO1 GFP [3] = experiment: MIC against planktonic cells, absorbance at 600 nm; assay type: cell-based, Pseudomonas aeruginosa; conditions: absorbance 600 nm
Procedure: as §1, §2, §3

P. aeruginosa PAO1 GFP [4] = experiment: MBIC, prevention of biofilm formation, GFP fluorescence method; assay type: cell-based, Pseudomonas aeruginosa
Procedure: as §1, §2, §3

S. aureus GFP [5] = assay type: cell-based, Staphylococcus aureus; conditions: Table 4; Sa GFP; lowest concentration of peptide with no bacterial growth seen on the spot agar plate
Description: as §3

S. aureus GFP [6] = experiment: MBIC, GFP fluorescence method; assay type: cell-based, Staphylococcus aureus; conditions: Table 4, Sa GFP, 10% TSB and 0.1% glucose, mean of three biological replicates
Procedure: (§7) Figure 3 The MIC (A), MBIC (B) and MBEC (C) values for the tritrpticin analog peptides were assessed against Sa GFP. The MIC values were determined by measuring the absorbance of bacterial cells at 600 nm. The MBIC and MBEC values were determined by recording the fluorescence at 480 nm and 530 nm from the biofilms of GFP-expressing Sa. Three biological replicates were run for each test sample, and the mean was calculated for the recorded absorption or fluorescence values. In the graphs, the error bars represent the standard deviation (±SD).
as §3

P. aeruginosa PAO1 [7] = assay type: cell-based, Pseudomonas aeruginosa; conditions: Table 5; PAO1, 1x BM2; biofilms on pegs, cells plated and counted; three biological replicates
Procedure: as §4
Figure 5 The MBEC values for the peptides were assessed against P. aeruginosa PAO1 in the presence of 1× BM2 medium. The eradication of biofilm cells was determined for the peptides using the counting of biofilm cells formed by Pa PAO1. Three biological replicates were run for each test sample, and the mean was calculated for counted cell values. Data points with error bars indicate the standard deviation (±SD).
as §3

S. aureus GFP [8] = experiment: MBEC, GFP fluorescence method; assay type: cell-based, Staphylococcus aureus; conditions: Table 4, Sa GFP, 10% TSB and 0.1% glucose, mean of three biological replicates
Procedure: as §7, §3

S. aureus GFP [9] = experiment: MIC against planktonic cells, absorbance at 600 nm; assay type: cell-based, Staphylococcus aureus; conditions: Table 4; Sa GFP, 10% TSB and 0.1% glucose; absorbance 600 nm; mean of three biological replicates
Procedure: as §7, §3

P. aeruginosa PAO1 [10] = assay type: cell-based, Pseudomonas aeruginosa; conditions: Table 6, Tritrp-Lys derivatives; PAO1, BM2; absorbance 600 nm; three replicates; unit not given
Procedure: as §5, §6, §3

[11] = Table 2, BM2 medium, mean of three biological replicates
[12] = Table 5, PAO1, 1x BM2, crystal violet at 595 nm, mean of three biological replicates
[13] = Table 5, minimum biofilm reduction concentration, PAO1, 1x BM2, crystal violet at 595 nm, mean of three biological replicates
[14] = Table 3, Tritrp-Lys derivatives, BM2 medium, three replicates
[15] = Table 6, Tritrp-Lys derivatives, PAO1, BM2, 0.1% crystal violet 15 min, released with 95% ethanol, 595 nm, three replicates, unit not given

Structure (SMILES) | MBEC at 488 and 530 nm LD50 (P. aeruginosa PAO1 GFP [1]; [11]) [µmol/L] | MBEC at 488 and 530 nm LD90 (P. aeruginosa PAO1 GFP [1]; [11]) [µmol/L] | MIC at 600 nm LD50 (P. aeruginosa PAO1 GFP [3]; [11]) [µM] | MIC at 600 nm LD90 (P. aeruginosa PAO1 GFP [3]; [11]) [µM] | MBIC at 488 and 530 nm LD50 (P. aeruginosa PAO1 GFP [4]; [11]) [µmol/L] | MBIC at 488 and 530 nm LD90 (P. aeruginosa PAO1 GFP [4]; [11]) [µmol/L] | MBC Agar Plate (S. aureus GFP [5]) [µM] | MBIC at 488 and 530 nm LD50 (S. aureus GFP [6]) [µmol/L] | MBIC at 488 and 530 nm LD90 (S. aureus GFP [6]) [µmol/L] | MBEC at 488 and 530 nm LD50 (S. aureus GFP [8]) [µmol/L] | MBEC at 488 and 530 nm LD90 (S. aureus GFP [8]) [µmol/L] | MIC at 600 nm LD50 (S. aureus GFP [9]) [µM] | MIC at 600 nm LD90 (S. aureus GFP [9]) [µM] | MBEC at 488 and 530 nm LD50 (P. aeruginosa PAO1 GFP [1]; [14]) [µmol/L] | MBEC at 488 and 530 nm LD90 (P. aeruginosa PAO1 GFP [1]; [14]) [µmol/L] | MBEC (CV at 595 nm) LD90 (P. aeruginosa PAO1 [2]; [15]) | MBIC (CV at 595 nm) LD90 (P. aeruginosa PAO1 [2]; [15]) | MIC at 600 nm LD50 (P. aeruginosa PAO1 GFP [3]; [14]) [µM] | MIC at 600 nm LD90 (P. aeruginosa PAO1 GFP [3]; [14]) [µM] | MBIC at 488 and 530 nm LD50 (P. aeruginosa PAO1 GFP [4]; [14]) [µmol/L] | further results
CC[C@H](C)[C@H](N)C(=O)N[C@@H](CC(C)C)C(=O)N1CCC[C@H]1C(=O)N[C@@H](Cc1c[nH]c2ccccc12)C(=O)N[C@@H](CCCCN)C(=O)N[C@@H](Cc1c[nH]c2ccccc12)C(=O)N1CCC[C@H]1C(=O)N[C@@H](Cc1c[nH]c2ccccc12)C(=O)N[C@@H](Cc1c[nH]c2ccccc12)C(=O)N1CCC[C@H]1C(=O)N[C@@H](Cc1c[nH]c2ccccc12)C(=O)N[C@@H](CCCNC(=N)N)C(=O)N[C@@H](CCCNC(=N)N)C(N)=O [Indolicidin, reference compound] | 32 | >128 | 8 (≈ 15.3 µg/mL) | 32 (≈ 61 µg/mL) | 8 | 32 | 8 (≈ 15.3 µg/mL) | 4 | 8 | 2 | 8 | 4 (≈ 7.63 µg/mL) | 8 (≈ 15.3 µg/mL) |  |  |  |  |  |  |  | MBIC (CV at 595 nm) LD50 (P. aeruginosa PAO1 [2]; [12]): 32 µmol/L; MBIC (CV at 595 nm) LD90 (P. aeruginosa PAO1 [2]; [12]): 32 µmol/L; MBRC (CV at 595 nm) LD50 (P. aeruginosa PAO1 [2]; [13]): 64 µmol/L; MBRC (CV at 595 nm) LD90 (P. aeruginosa PAO1 [2]; [13]): 64 µmol/L; MBEC from Calgary Biofilm Device (CBD) LD50 (P. aeruginosa PAO1 [7]): 128 µmol/L; MBEC from Calgary Biofilm Device (CBD) LD90 (P. aeruginosa PAO1 [7]): 128 µmol/L
N=C(N)NCCC[C@H](NC(=O)[C@H](CCCNC(=N)N)NC(=O)[C@@H](N)CCCNC(=N)N)C(=O)N[C@@H](Cc1c[nH]c2ccccc12)C(=O)N[C@@H](Cc1c[nH]c2ccccc12)C(=O)N[C@@H](Cc1c[nH]c2ccccc12)C(N)=O [RRRWWW-NH2] (H-RRRWWW-NH2) | 64 | >128 | 32 (≈ 33.4 µg/mL) | 128 (≈ 134 µg/mL) | 16 | 128 | 4 (≈ 4.18 µg/mL) | 1 | 1 | 0.5 | 4 | 1 (≈ 1.04 µg/mL) | 1 (≈ 1.04 µg/mL) |  |  |  |  |  |  |  | 
N=C(N)NCCC[C@H](NC(=O)[C@H](Cc1c[nH]c2ccccc12)NC(=O)[C@H](Cc1c[nH]c2ccccc12)NC(=O)[C@H](Cc1c[nH]c2ccccc12)NC(=O)[C@H](CCCNC(=N)N)NC(=O)[C@@H](N)CCCNC(=N)N)C(N)=O [RRWWWR-NH2] (H-RRWWWR-NH2) | 128 | >128 | 64 (≈ 66.8 µg/mL) | 128 (≈ 134 µg/mL) | 16 | 128 | 4 (≈ 4.18 µg/mL) | 1 | 1 | 1 | 4 | 1 (≈ 1.04 µg/mL) | 1 (≈ 1.04 µg/mL) |  |  |  |  |  |  |  | 
CC(C)C[C@H](NC(=O)[C@H](Cc1ccccc1)NC(=O)[C@@H]1CCCN1C(=O)[C@H](Cc1c[nH]c2ccccc12)NC(=O)[C@H](Cc1c[nH]c2ccccc12)NC(=O)[C@H](Cc1c[nH]c2ccccc12)NC(=O)[C@@H]1CCCN1C(=O)[C@H](Cc1ccccc1)NC(=O)[C@H](CCN)NC(=O)[C@H](CCN)NC(=O)[C@@H](N)C(C)C)C(=O)N[C@@H](CCN)C(=O)N[C@@H](CCN)C(N)=O [Tritrp-Dab] (H-V[Dab][Dab]FPWWWPFL[Dab][Dab]-NH2; N-terminus assumed) |  |  |  |  |  |  |  |  |  |  |  |  |  | 16 | 64 | 64 | 16 | 8 (≈ 13.4 µg/mL) | 16 (≈ 26.8 µg/mL) | 8 | MBIC at 488 and 530 nm LD90 (P. aeruginosa PAO1 GFP [4]; [14]): 16 µmol/L; MIC at 600 nm LD50 (P. aeruginosa PAO1 [10]): 16; MIC at 600 nm LD90 (P. aeruginosa PAO1 [10]): 16
CC(C)C[C@H](NC(=O)[C@H](Cc1ccccc1)NC(=O)[C@@H]1CCCN1C(=O)[C@H](Cc1c[nH]c2ccccc12)NC(=O)[C@H](Cc1c[nH]c2ccccc12)NC(=O)[C@H](Cc1c[nH]c2ccccc12)NC(=O)[C@@H]1CCCN1C(=O)[C@H](Cc1ccccc1)NC(=O)[C@H](CCCN)NC(=O)[C@H](CCCN)NC(=O)[C@@H](N)C(C)C)C(=O)N[C@@H](CCCN)C(=O)N[C@@H](CCCN)C(N)=O [Tritrp-Orn] (H-V[Orn][Orn]FPWWWPFL[Orn][Orn]-NH2; N-terminus assumed) |  |  |  |  |  |  |  |  |  |  |  |  |  | 64 | 128 | 128 | 32 | 16 (≈ 27.7 µg/mL) | 16 (≈ 27.7 µg/mL) | 16 | MBIC at 488 and 530 nm LD90 (P. aeruginosa PAO1 GFP [4]; [14]): 16 µmol/L; MIC at 600 nm LD50 (P. aeruginosa PAO1 [10]): 16; MIC at 600 nm LD90 (P. aeruginosa PAO1 [10]): 16

Source: publication PMC11858513, “Antibiofilm Activities of Tritrpticin Analogs Against Pathogenic Pseudomonas aeruginosa PA01 Strains” (Molecules, 2025)
